Results on 22 compounds are retold here after patent US11926626B2, “Heterocyclic GLP-1 agonists” (Gasherbrum Bio, Inc., priority 2020, dated 2024).

For the first assay, the target named is GLP-1 Receptor (Homo sapiens, UniProt P43220). In words: GLP-1R agonist cAMP stimulation assay (HEK293/GLP1R/CRE-Luc cells, HTRF cAMP). Type of assay: cell-based.
GLP-1 Receptor, sequence (P43220 24-463): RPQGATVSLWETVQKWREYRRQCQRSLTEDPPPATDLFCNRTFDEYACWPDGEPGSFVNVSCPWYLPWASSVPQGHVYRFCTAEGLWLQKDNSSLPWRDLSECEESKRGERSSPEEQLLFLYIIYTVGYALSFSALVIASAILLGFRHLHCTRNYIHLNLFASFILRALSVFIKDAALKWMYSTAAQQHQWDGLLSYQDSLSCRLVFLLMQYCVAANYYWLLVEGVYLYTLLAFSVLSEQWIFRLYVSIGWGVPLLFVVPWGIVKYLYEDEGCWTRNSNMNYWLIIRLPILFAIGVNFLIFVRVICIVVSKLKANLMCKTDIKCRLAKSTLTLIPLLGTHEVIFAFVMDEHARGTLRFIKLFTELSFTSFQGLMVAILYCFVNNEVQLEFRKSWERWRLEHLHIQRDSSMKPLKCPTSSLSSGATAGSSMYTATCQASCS
Conditions: not given
The method, then:
Activation of GLP-1 receptor is known to stimulate cyclic AMP (cAMP) production in cells which indicates primary coupling to the Gαs subunit of the G protein heterotrimeric complex.
To optimize functional activity directed toward Gαs coupling, a HEK293/CRE-Luc cell line developed by HDB stably expressing the GLP-1 Receptor was used. […] 1×10^5 cells/mL HEK293/GLP1R/CRE-LUC(HD Biosciences) cell suspensions prepared with assay buffer[DPBS containing 0.5 mM IBMX (Sigma, Cat #I5879) and 0.1% BSA (GENVIEW, Cat #FA016-100g)], 10 uL cell suspensions were added to each well of previous generated assay plate which already contains 50 nl compound at 200×concentration using ThermoFisher Multidrop Combi (1000 cells/well). Seal the plate and incubate at 37° C. with 5% CO2 for 30 min.
After incubation the cAMP assay signal was generated using cAMP dynamic 2 Kit (Cisbio). 5 μL cAMP-d2 working solution was added to each well, followed with 5 μL Anti-cAMP antibody-cryptate working solution added to each well using ThermoFisher Multidrop Combi. Incubate at room temperature for 1 hour protected from light.
(In general: In TR-FRET formats the signal depends on donor and acceptor labels being close together.)
Consider `CC(c1cccc(OC2CCN(Cc3nc4ccc(C(=O)O)nc4n3C[C@@H]3CCO3)CC2)n1)c1ccc(Cl)cc1F` (stereo partly drawn) [Compound 128a, 2-{[4-({6-[1-(4-chloro-2-fluorophenyl)ethyl]pyridin-2-yl}oxy)piperidin-1-yl]methyl}-3-{[(2S)-oxetan-2-yl]methyl}-3H-imidazo[4,5-b]pyridine-5-carboxylic acid], for which the “GLP1R cAMP Stimulation DR: pEC50” value is given as 8.9.

The assay is the same for the next values; noted with them: 30 min, 37° C.
For the compound `O=C(O)c1ccc2nc(CC3CCN(C(=O)c4cccc(Cc5ccc(Cl)cc5F)n4)CC3)n(C[C@@H]3CCO3)c2n1` [Compound 106a, (S)-2-((1-(6-(4-Chloro-2-fluorobenzyl)picolinoyl)piperidin-4-yl)methyl)-3-(oxetan-2-ylmethyl)-3H-imidazo[4,5-b]pyridine-5-carboxylic acid], the “GLP1R cAMP Stimulation DR: pEC50” value is 6.33.

Consider `CC(=O)Nc1ccc2nc(CN3CCC(Oc4cccc(Cc5ccc(Cl)cc5F)n4)CC3)n(C[C@@H]3CCO3)c2c1` [Compound 134a, N-(2-{[4-({6-[(4-chloro-2-fluorophenyl)methyl]pyridin-2-yl}oxy)piperidin-1-yl]methyl}-1-{[(2S)-oxetan-2-yl]methyl}-1H-1,3-benzodiazol-6-yl)acetamide], for which the “GLP1R cAMP Stimulation DR: pEC50” value is listed as 7.2.

As to `O=C(O)c1ccc2nc(CN3CCC(c4cccc5nc(Cc6ccc(Cl)cc6F)oc45)CC3)n(C[C@@H]3CCO3)c2n1` [Compound 143a, (S)-2-((4-(2-(4-chloro-2-fluorobenzyl)benzo[d]oxazol-7-yl)piperidin-1-yl)methyl)-3-(oxetan-2-ylmethyl)-3H-imidazo[4,5-b]pyridine-5-carboxylic acid], the “GLP1R cAMP Stimulation DR: pEC50” value stood at 9.3.

Staying with this assay, now noted: HEK293/CRE-Luc cells stably expressing GLP-1 Receptor; 30 min, 37° C.
As for `O=C(O)c1ccc2nc(CN3CCC(Oc4nc(Cc5ccc(Cl)cc5F)ccc4F)CC3)n(C[C@@H]3CCO3)c2n1` [Compound 111a, 2-{[4-({6-[(4-chloro-2-fluorophenyl)methyl]-3-fluoropyridin-2-yl}oxy)piperidin-1-yl]methyl}-3-{[(2S)-oxetan-2-yl]methyl}-3H-imidazo[4,5-b]pyridine-5-carboxylic acid], the “GLP1R cAMP Stimulation DR: pEC50” value came to 9.5.

With `O=C(O)c1ccc2nc(CN3CCC(Oc4ccnc(Cc5ccc(Cl)cc5F)n4)CC3)n(C[C@@H]3CCO3)c2n1` [Compound 113a, 2-{[4-({2-[(4-chloro-2-fluorophenyl)methyl]pyrimidin-4-yl}oxy)piperidin-1-yl]methyl}-3-{[(2S)-oxetan-2-yl]methyl}-3H-imidazo[4,5-b]pyridine-5-carboxylic acid], the “GLP1R cAMP Stimulation DR: pEC50” value is listed as 10.4.

With `O=C(O)c1ccc2nc(CN3CCC(Oc4cc(Cc5ccc(Cl)cc5F)ccc4F)CC3)n(C[C@@H]3CCO3)c2n1` [Compound 114a, 2-[(4-{5-[(4-chloro-2-fluorophenyl)methyl]-2-fluorophenoxy}piperidin-1-yl)methyl]-3-{[(2S)-oxetan-2-yl]methyl}-3H-imidazo[4,5-b]pyridine-5-carboxylic acid], the “GLP1R cAMP Stimulation DR: pEC50” value was 8.8.

Take `O=C(O)c1ccc2nc(CN3CCC(Oc4ccn(Cc5ccc(Cl)cc5F)n4)CC3)n(C[C@@H]3CCO3)c2c1` [Compound 116a, 2-{[4-({1-[(4-chloro-2-fluorophenyl)methyl]-1H-pyrazol-3-yl}oxy)piperidin-1-yl]methyl}-1-{[(2S)-oxetan-2-yl]methyl}-1H-1,3-benzodiazole-6-carboxylic acid]: the “GLP1R cAMP Stimulation DR: pEC50” value is recorded as 8.6.

Regarding `O=C(O)c1ccc2nc(CN3CCC(Cc4cccc(Oc5ccc(Cl)cc5F)n4)CC3)n(C[C@@H]3CCO3)c2n1` [Compound 121a, 2-[(4-{[6-(4-chloro-2-fluorophenoxy)pyridin-2-yl]methyl}piperidin-1-yl)methyl]-3-{[(2S)-oxetan-2-yl]methyl}-3H-imidazo[4,5-b]pyridine-5-carboxylic acid], the “GLP1R cAMP Stimulation DR: pEC50” value was 8.2.

On to `O=C(O)c1ccc2nc(CN3CCC(Oc4cccc(Cc5ccc(Cl)cc5)n4)CC3)n(C[C@@H]3CCO3)c2n1` [Compound 124a, (S)-2-((4-((6-(4-chlorobenzyl)pyridin-2-yl)oxy)piperidin-1-yl)methyl)-3-(oxetan-2-ylmethyl)-3H-imidazo[4,5-b]pyridine-5-carboxylic acid], for which the “GLP1R cAMP Stimulation DR: pEC50” value is recorded as 10.4.

In the case of `O=C(O)c1ccc2nc(CN3CCC(Oc4cccc(Cc5cccc(Cl)c5)n4)CC3)n(C[C@@H]3CCO3)c2n1` [Compound 125a, (S)-2-((4-((6-(3-chlorobenzyl)pyridin-2-yl)oxy)piperidin-1-yl)methyl)-3-(oxetan-2-ylmethyl)-3H-imidazo[4,5-b]pyridine-5-carboxylic acid], the “GLP1R cAMP Stimulation DR: pEC50” value is 8.9.

For the compound `O=C(O)c1ccc2nc(CN3CCC(Oc4cccc(Cc5ccc(Cl)cc5F)n4)C3)n(C[C@@H]3CCO3)c2n1` (stereo partly drawn) [Compound 130a, 2-{[3-({6-[(4-chloro-2-fluorophenyl)methyl]pyridin-2-yl}oxy)pyrrolidin-1-yl]methyl}-3-{[(2S)-oxetan-2-yl]methyl}-3H-imidazo[4,5-b]pyridine-5-carboxylic acid], the “GLP1R cAMP Stimulation DR: pEC50” value is 7.3.

As for `Cc1cn(Cc2ccc(Cl)cc2F)nc1OC1CCN(Cc2nc3ccc(C(=O)O)nc3n2C[C@@H]2CCO2)CC1` [Compound 133a, 2-{[4-({1-[(4-chloro-2-fluorophenyl)methyl]-4-methyl-1H-pyrazol-3-yl}oxy)piperidin-1-yl]methyl}-3-{[(2S)-oxetan-2-yl]methyl}-3H-imidazo[4,5-b]pyridine-5-carboxylic acid], the “GLP1R cAMP Stimulation DR: pEC50” value is reported as 8.6.

With `N#Cc1ccc(Cc2cccc(OC3CCN(Cc4nc5ccc(C(=O)O)cc5n4C[C@@H]4CCO4)CC3)n2)c(F)c1` [Compound 135a, 2-{[4-({6-[(4-cyano-2-fluorophenyl)methyl]pyridin-2-yl}oxy)piperidin-1-yl]methyl}-1-{[(2S)-oxetan-2-yl]methyl}-1H-1,3-benzodiazole-6-carboxylic acid], the “GLP1R cAMP Stimulation DR: pEC50” value stood at 8.7.

On to `N#Cc1ccc(Cc2cccc(OC3CCN(Cc4nc5ccc(C(=O)O)nc5n4C[C@@H]4CCO4)CC3)n2)c(F)c1` [Compound 136a, 2-{[4-({6-[(4-cyano-2-fluorophenyl)methyl]pyridin-2-yl}oxy)piperidin-1-yl]methyl}-3-{[(2S)-oxetan-2-yl]methyl}-3H-imidazo[4,5-b]pyridine-5-carboxylic acid], for which the “GLP1R cAMP Stimulation DR: pEC50” value is listed as 9.4.

Regarding `O=C(O)c1ccc2nc(CN3CCC(Oc4nc(Cc5ccc(Cl)cc5F)ccc4Cl)CC3)n(C[C@@H]3CCO3)c2n1` [Compound 137a, 2-{[4-({3-chloro-6-[(4-chloro-2-fluorophenyl)methyl]pyridin-2-yl}oxy)piperidin-1-yl]methyl}-3-{[(2S)-oxetan-2-yl]methyl}-3H-imidazo[4,5-b]pyridine-5-carboxylic acid], the “GLP1R cAMP Stimulation DR: pEC50” value amounted to 7.3.

In the case of `O=C(O)c1ccc2nc(CN3CCC(n4ccc5ccc(Cc6ccc(Cl)cc6F)nc54)CC3)n(C[C@@H]3CCO3)c2n1` [Compound 140a, 2-[(4-{6-[(4-chloro-2-fluorophenyl)methyl]-1H-pyrrolo[2,3-b]pyridin-1-yl}piperidin-1-yl)methyl]-3-{[(2S)-oxetan-2-yl]methyl}-3H-imidazo[4,5-b]pyridine-5-carboxylic acid], the “GLP1R cAMP Stimulation DR: pEC50” value worked out at 8.9.

Turning to `O=C(O)c1ccc2nc(CN3CCC(c4cccc5cn(Cc6ccc(Cl)cc6F)nc45)CC3)n(C[C@@H]3CCO3)c2n1` [Compound 142a, (S)-2-((4-(2-(4-chloro-2-fluorobenzyl)-2H-indazol-7-yl)piperidin-1-yl)methyl)-3-(oxetan-2-ylmethyl)-3H-imidazo[4,5-b]pyridine-5-carboxylic acid], the “GLP1R cAMP Stimulation DR: pEC50” value came out at 8.8.

As to `O=C(O)c1ccc2nc(CN3CCC(Oc4ccc(=O)n(Cc5ccc(Cl)cc5F)n4)CC3)n(C[C@@H]3CCO3)c2n1` [Compound 144a, 2-{[4-({1-[(4-chloro-2-fluorophenyl)methyl]-6-oxo-1,6-dihydropyridazin-3-yl}oxy)piperidin-1-yl]methyl}-3-{[(2S)-oxetan-2-yl]methyl}-3H-imidazo[4,5-b]pyridine-5-carboxylic acid], the “GLP1R cAMP Stimulation DR: pEC50” value came to 8.3.

`O=C(O)c1ccc2nc(CN3CCC(Oc4cccc(Cc5ccc(C(F)(F)F)cc5)n4)CC3)n(C[C@@H]3CCO3)c2n1` [Compound 145a, 3-{[(2S)-oxetan-2-yl]methyl}-2-({4-[(6-{[4-(trifluoromethyl)phenyl]methyl}pyridin-2-yl)oxy]piperidin-1-yl}methyl)-3H-imidazo[4,5-b]pyridine-5-carboxylic acid]: the “GLP1R cAMP Stimulation DR: pEC50” value was found to be 8.5.

Take `O=C(O)c1ccc2nc(CN3CCC(Oc4cccc(Cc5ccc(C6CC6)cc5)n4)CC3)n(C[C@@H]3CCO3)c2n1` [Compound 146a, 2-{[4-({6-[(4-cyclopropylphenyl)methyl]pyridin-2-yl}oxy)piperidin-1-yl]methyl}-3-{[(2S)-oxetan-2-yl]methyl}-3H-imidazo[4,5-b]pyridine-5-carboxylic acid]: the “GLP1R cAMP Stimulation DR: pEC50” value came out at 9.2.

Still in this assay, the particulars now being: HEK293/CRE-Luc cells stably expressing GLP-1 Receptor; 30 min, 37° C.; read-out: GLP1R cAMP Stimulation DR: EC50.
For the compound `Cc1ccc(OC2CCN(Cc3nc4ccc(C(=O)O)nc4n3CC3CCO3)CC2)nc1Cc1ccc(Cl)cc1F` (stereo in doubt) [Compound 169a, 2-{[4-({6-[(4-chloro-2-fluorophenyl)methyl]-5-methylpyridin-2-yl}oxy)piperidin-1-yl]methyl}-3-{[(2S)-oxetan-2-yl]methyl}-3H-imidazo[4,5-b]pyridine-5-carboxylic acid], the EC50 came out at 80 nM.

In general, EC50 refers to the concentration giving half of the maximal effect.
